Laboratory results published in the NIST ThermoML archive (doi:10.1021/je049671t).

Assay: xn = mol fraction of the nth substance listed
Conditions: Liquid, Vibrating tube method

CC(C)C [2-methylpropane] + CCC
Conditions | mass density [kg/m3]
300 K, 4958.9 kPa, x2 = 0.499 | 533.34
300 K, 4994.5 kPa, x2 = 0.75 | 518.46
300 K, 5016.4 kPa, x2 = 0.25 | 547.38
300 K, 5458.6 kPa, x2 = 0.499 | 534.46
300 K, 5458.9 kPa, x2 = 0.75 | 519.57
300 K, 5511.8 kPa, x2 = 0.25 | 548.38
300 K, 5960.9 kPa, x2 = 0.75 | 520.74
300 K, 5975.7 kPa, x2 = 0.499 | 535.56
300 K, 6025.1 kPa, x2 = 0.25 | 549.47
300 K, 6473 kPa, x2 = 0.75 | 521.92
300 K, 6516 kPa, x2 = 0.25 | 550.41
300 K, 6517.3 kPa, x2 = 0.499 | 536.72
300 K, 6954.6 kPa, x2 = 0.75 | 522.99
300 K, 6957 kPa, x2 = 0.25 | 551.23
300 K, 6984.7 kPa, x2 = 0.499 | 537.69
320 K, 1020.5 kPa, x2 = 0.25 | 509.69
320 K, 1325.3 kPa, x2 = 0.75 | 475.52
320 K, 1461.2 kPa, x2 = 0.499 | 494.61
320 K, 1500 kPa, x2 = 0.25 | 511.28
320 K, 1505.3 kPa, x2 = 0.75 | 476.31
320 K, 2021.1 kPa, x2 = 0.75 | 478.51
320 K, 2023.3 kPa, x2 = 0.25 | 512.94
320 K, 2041.5 kPa, x2 = 0.499 | 496.75
320 K, 2488.7 kPa, x2 = 0.499 | 498.31
320 K, 2517.7 kPa, x2 = 0.75 | 480.54
320 K, 2522.2 kPa, x2 = 0.25 | 514.49
320 K, 3007.6 kPa, x2 = 0.25 | 515.95
320 K, 3023.9 kPa, x2 = 0.499 | 500.12
320 K, 3025.6 kPa, x2 = 0.75 | 482.53
320 K, 3506.4 kPa, x2 = 0.75 | 484.35
320 K, 3508.1 kPa, x2 = 0.25 | 517.4
320 K, 3550 kPa, x2 = 0.499 | 501.84
320 K, 3994.2 kPa, x2 = 0.75 | 486.12
320 K, 4022.9 kPa, x2 = 0.25 | 518.87
320 K, 4037.4 kPa, x2 = 0.499 | 503.38
320 K, 4507.7 kPa, x2 = 0.75 | 487.92
320 K, 4522.1 kPa, x2 = 0.25 | 520.26
320 K, 4530.4 kPa, x2 = 0.499 | 504.9
320 K, 4954.2 kPa, x2 = 0.499 | 506.17
320 K, 4968 kPa, x2 = 0.75 | 489.5
320 K, 4990.1 kPa, x2 = 0.25 | 521.53
320 K, 5517.3 kPa, x2 = 0.25 | 522.93
320 K, 5527.2 kPa, x2 = 0.75 | 491.33
320 K, 5545.8 kPa, x2 = 0.499 | 507.9
320 K, 5997.3 kPa, x2 = 0.499 | 509.24
320 K, 6001.8 kPa, x2 = 0.25 | 524.19
320 K, 6003.6 kPa, x2 = 0.75 | 492.85
320 K, 6479.8 kPa, x2 = 0.25 | 525.39
320 K, 6495 kPa, x2 = 0.75 | 494.38
320 K, 6524.9 kPa, x2 = 0.499 | 510.74
320 K, 6930.3 kPa, x2 = 0.499 | 511.85
320 K, 6964.1 kPa, x2 = 0.25 | 526.6
320 K, 7044.7 kPa, x2 = 0.75 | 496.03
340 K, 1514.2 kPa, x2 = 0.25 | 479.11
340 K, 2002.6 kPa, x2 = 0.499 | 459.37
340 K, 2028 kPa, x2 = 0.25 | 481.6
340 K, 2456 kPa, x2 = 0.499 | 461.99
340 K, 2489.8 kPa, x2 = 0.75 | 441.74
340 K, 2523.8 kPa, x2 = 0.25 | 483.92
340 K, 2981.6 kPa, x2 = 0.499 | 464.85
340 K, 3027.2 kPa, x2 = 0.25 | 486.13
340 K, 3027.4 kPa, x2 = 0.75 | 445.39
340 K, 3485.7 kPa, x2 = 0.499 | 467.47
340 K, 3510.1 kPa, x2 = 0.75 | 448.46
340 K, 3532.9 kPa, x2 = 0.25 | 488.26
340 K, 3969 kPa, x2 = 0.75 | 451.17
340 K, 4012.5 kPa, x2 = 0.499 | 470.04
340 K, 4015.7 kPa, x2 = 0.25 | 490.21
340 K, 4498.6 kPa, x2 = 0.75 | 454.09
340 K, 4503 kPa, x2 = 0.25 | 492.08
340 K, 4508.4 kPa, x2 = 0.499 | 472.34
340 K, 4963.1 kPa, x2 = 0.75 | 456.51
340 K, 4964.9 kPa, x2 = 0.25 | 493.81
340 K, 4990.6 kPa, x2 = 0.499 | 474.5
340 K, 5450.5 kPa, x2 = 0.499 | 476.5
340 K, 5511.1 kPa, x2 = 0.75 | 459.22
340 K, 5522.3 kPa, x2 = 0.25 | 495.84
340 K, 5960.4 kPa, x2 = 0.75 | 461.33
340 K, 5982 kPa, x2 = 0.499 | 478.68
340 K, 6022.3 kPa, x2 = 0.25 | 497.59
340 K, 6506.1 kPa, x2 = 0.75 | 463.79
340 K, 6513 kPa, x2 = 0.499 | 480.75
340 K, 6527.5 kPa, x2 = 0.25 | 499.31
340 K, 6963 kPa, x2 = 0.25 | 500.75
340 K, 7045.5 kPa, x2 = 0.499 | 482.76
340 K, 7081.1 kPa, x2 = 0.75 | 466.25
360 K, 2023.3 kPa, x2 = 0.25 | 441.34
360 K, 2495.4 kPa, x2 = 0.499 | 418.03
360 K, 2532.9 kPa, x2 = 0.25 | 445.56
360 K, 2996.3 kPa, x2 = 0.499 | 423.54
360 K, 3022.3 kPa, x2 = 0.25 | 449.26
360 K, 3496.3 kPa, x2 = 0.499 | 428.34
360 K, 3518.2 kPa, x2 = 0.75 | 399.53
360 K, 3519.8 kPa, x2 = 0.25 | 452.71
360 K, 3960 kPa, x2 = 0.75 | 405.21
360 K, 3971.4 kPa, x2 = 0.75 | 405.35
360 K, 3988.8 kPa, x2 = 0.499 | 432.58
360 K, 4022.3 kPa, x2 = 0.25 | 455.95
360 K, 4484.8 kPa, x2 = 0.75 | 411.08
360 K, 4488.6 kPa, x2 = 0.499 | 436.48
360 K, 4520.2 kPa, x2 = 0.25 | 458.95
360 K, 4923.7 kPa, x2 = 0.75 | 415.42
360 K, 4983.9 kPa, x2 = 0.25 | 461.58
360 K, 5000.3 kPa, x2 = 0.499 | 440.17
360 K, 5436.6 kPa, x2 = 0.499 | 443.06
360 K, 5456.3 kPa, x2 = 0.75 | 420.47
360 K, 5515.2 kPa, x2 = 0.25 | 464.45
360 K, 5932 kPa, x2 = 0.75 | 424.33
360 K, 5982.9 kPa, x2 = 0.25 | 466.86
360 K, 5992.3 kPa, x2 = 0.499 | 446.54
360 K, 6444.6 kPa, x2 = 0.25 | 469.09
360 K, 6487.4 kPa, x2 = 0.499 | 449.41
360 K, 6509.8 kPa, x2 = 0.75 | 428.41
360 K, 6932.1 kPa, x2 = 0.75 | 431.05
360 K, 6956.4 kPa, x2 = 0.25 | 471.48
360 K, 6977 kPa, x2 = 0.499 | 452.14
380 K, 2977.2 kPa, x2 = 0.25 | 394.6
380 K, 3495.5 kPa, x2 = 0.25 | 403.43
380 K, 3540.7 kPa, x2 = 0.499 | 358.66
380 K, 3969.5 kPa, x2 = 0.25 | 409.99
380 K, 4047.9 kPa, x2 = 0.499 | 373.76
380 K, 4453.9 kPa, x2 = 0.25 | 415.7
380 K, 4501.9 kPa, x2 = 0.499 | 383.09
380 K, 5016 kPa, x2 = 0.499 | 391.43
380 K, 5019.6 kPa, x2 = 0.25 | 421.52
380 K, 5488.5 kPa, x2 = 0.25 | 425.84
380 K, 5506.7 kPa, x2 = 0.499 | 398.06
380 K, 5943.1 kPa, x2 = 0.499 | 403.16
380 K, 5972.1 kPa, x2 = 0.25 | 429.89
380 K, 6422.5 kPa, x2 = 0.499 | 408.17
380 K, 6471.8 kPa, x2 = 0.25 | 433.74
380 K, 6885.8 kPa, x2 = 0.499 | 412.58
380 K, 7060.8 kPa, x2 = 0.25 | 437.93

mass density [kg/m3]
Conditions | 300 K | 320 K | 340 K | 360 K | 380 K
x2 = 0.25 | 537.31 | 509.12 | 478.17 | 440.78 | 390.71
x2 = 0.499 | 522.96 | 491.75 | 457.03 | 416.83 | 346.9
x2 = 0.75 | 507.33 | 475.51 | 436.07 | 388.35 | –
